Like-named read-outs stand apart in the source and are kept apart here.
Key:
[1] = Stability of aqueous solutions of salts at 40° C., analyzed by HPLC; assay type: physicochemical
Procedure: Aqueous solutions of TPPS2a salts (approx. 1% weight) were kept at 40° C. for 31 days. The solutions were analyzed by HPLC (HP 1100). The HPLC conditions were as follows:
Column: Agilent Extend C-18
Mobile phase: 85% methanol, 15% water
Detector: UV detector, 415 nm
Aqueous solutions of TPCS2a salts (approx. 1% weight) were kept at 40° C. for 31 days.

[2] = Solubility of salts in water (water added in 0.2 ml portions); assay type: physicochemical
From the text: The mixture was agitated until solid particles were broken up and dissolved.

[3] = test system: target tumour (head and neck squamous cell carcinoma, osteosarcoma, skin metastases of breast cancer); conditions: other photosensitizers formulated in non-aqueous formulations; cited from earlier work
[4] = test system: target tumour (head and neck squamous cell carcinoma, osteosarcoma, skin metastases of breast cancer); assay type: in vivo, patients; conditions: 0.25-1.0 mg/kg 4 days before illumination (652 nm, 60 J/cm^2), bleomycin 15 000 IU per m^2 i.v. 3 hours before illumination; a few weeks after treatment
Procedure: In addition, the patients received an intravenous injection of the cytotoxic agent bleomycin (15 000 IU per m^2 body surface) 3 hours before illumination. […] The aqueous formulation also made it possible to flush the injection needle and vein with saline after photosensitizer injection, thereby eliminating the unwanted effect of photosensitivity at or near to the injection site which is often observed for photosensitizers in non-aqueous formulations where such flushing is not possible. The patient population included patients with head and neck cancers (squamous cell carcinoma), osteosarcoma and skin metastases of breast cancer.

[5] = aqueous solution approx. 1% weight, 40° C. for 31 days, HPLC UV 415 nm

| Compound | Degradation [1, 5] | Degradation [1] | further results |
| --- | --- | --- | --- |
| NCCO.NCCO.O=S(=O)(O)c1ccc(-c2c3nc(c(-c4ccc(S(=O)(=O)O)cc4)c4ccc([nH]4)c(-c4ccccc4)c4nc(c(-c5ccccc5)c5ccc2[nH]5)C=C4)C=C3)cc1 [Example 1, Meso-Tetraphenyl Porphyrin Disulphonate bis(monoethanolamine)] | No degradation | – | – |
| CNCC(O)C(O)C(O)C(O)CO.CNCC(O)C(O)C(O)C(O)CO.O=S(=O)(O)c1ccc(-c2c3nc(c(-c4ccccc4)c4ccc([nH]4)c(-c4ccccc4)c4nc(c(-c5ccc(S(=O)(=O)O)cc5)c5ccc2[nH]5)C=C4)C=C3)cc1 [Example 2, Meso-Tetraphenyl Porphyrin Disulphonate bis(meglumate)] | – | No degradation | Minimum solubility in water [2]: 89.7 mg/mL |
| O=S(=O)(O)c1ccc(-c2c3nc(c(-c4ccccc4)c4ccc([nH]4)c(-c4ccccc4)c4nc(c(-c5ccc(S(=O)(=O)O)cc5)c5ccc2[nH]5)C=C4)C=C3)cc1.OCCNCCO.OCCNCCO [Example 4, Meso-Tetraphenyl Porphyrin Disulphonate bis(diethanolamine)] | – | No degradation | – |
| O=S(=O)(O)c1ccc(-c2c3nc(c(-c4ccc(S(=O)(=O)O)cc4)c4ccc([nH]4)c(-c4ccccc4)c4nc(c(-c5ccccc5)c5ccc2[nH]5)C=C4)C=C3)cc1.OCCN1CCCC1.OCCN1CCCC1 [Example 5, Meso-Tetraphenyl Porphyrin Disulphonate bis(1-(2-hydroxyethyl)pyrrolidine)] | – | No degradation | – |
| O=S(=O)(O)c1ccc(-c2c3nc(c(-c4ccc(S(=O)(=O)O)cc4)c4ccc([nH]4)c(-c4ccccc4)c4nc(c(-c5ccccc5)c5ccc2[nH]5)C=C4)C=C3)cc1.OCCN(CCO)CCO.OCCN(CCO)CCO [Example 6, Meso-Tetraphenyl Porphyrin Disulphonate bis(triethanolamine)] | No degradation | – | – |
| Oc1cccc(-c2c3nc(c(-c4cccc(O)c4)c4ccc([nH]4)c(-c4cccc(O)c4)c4nc(c(-c5cccc(O)c5)c5ccc2[nH]5)CC4)C=C3)c1 [temoporfin] | – | – | Pain on administration [3]: can be associated with strong pain |
| Meso-Tetraphenyl Chlorin Disulphonate bis(meglumate) [Example 8] | No degradation | – | Minimum solubility in water ([2]; approx. 50 mg salt, water added in 0.2 ml portions until dissolved): 38.9 mg/mL |
| Meso-Tetraphenyl Chlorin Disulphonate bis(monoethanolamine) [Example 7] | – | No degradation | – |
| Meso-tetraphenyl chlorin disulphonate [TPCS2a] | – | – | Clinical regression of the target tumour [4]: Complete clinical regression of the target tumour was induced in all patients |

Source: patent US9026203B2, “Photosensitizing compositions” (PCI Biotech AS, priority 2009, dated 2015)
